Source: patent US20240390340A1 (INCYTE CORPORATION, priority 2023, published 2024)
Like-named read-outs stand apart in the source and are kept apart here.

Legend:
Caco-2 cells = assay: Caco2 assay (Papp A-B); assay type: in vitro ADME; conditions: test compound 50 μM, 120 min, 37° C.
Procedure: Caco-2 cells are grown at 37° C. in an atmosphere of 5% CO2 in DMEM growth medium supplemented with 10% (v/v) fetal bovine serum, 1% (v/v) nonessential amino acids, penicillin (100 U/mL), and streptomycin (100 μg/mL). Confluent cell monolayers are subcultured every 7 days or 4 days for Caco-2 by treatment with 0.05% trypsin containing […]. Caco-2 cells are seeded in 96-well Transwell plates. The seeding density for Caco-2 cells is 14,000 cells/well. DMEM growth medium is replaced every other day after seeding. Cell monolayers are used for transport assays between 22 and 25 days for Caco-2 cells.
Cell culture medium is removed and replaced with HBSS. To measure the TEER, the HBSS is added into the donor compartment (apical side) and receiver compartment (basolateral side). The TEER is measured by using a REMS Autosampler to ensure the integrity of the cell monolayers. Caco-2 cell monolayers with TEER values 300 Ω·cm^2 are used for transport experiments. To determine the Papp in the absorptive direction (A-B), solution of test compound (50 μM) in HBSS is added to the donor compartment (apical side), while HBSS solution with 4% BSA is added to the receiver compartment (basolateral side). The apical volume was 0.075 mL, and the basolateral volume is 0.25 mL. The incubation period is 120 min. at 37° C. in an atmosphere of 5% CO2. At the end of the incubation period, samples from the donor and receiver sides are removed and an equal volume of MeCN is added for protein precipitation. The supernatants are collected after centrifugation (3000 rpm, Allegra X-14R Centrifuge from Beckman Coulter, Indianapolis, IN) for LCMS analysis. The permeability value is determined according to the equation:
[formula] • where the flux rate (F, mass/time) is calculated from the slope of cumulative amounts of compound of interest on the receiver side, SA is the surface area of the cell membrane, VD is the donor volume, and MD is the initial amount of the solution in the donor chamber.
The symbol “+” indicates a Caco-2 value of ≤0.5, “++” indicates a Caco-2 value of >0.5 but ≤1; and “+++” indicates a Caco-2 value of >1. “NA” indicates IC50 not available.

KRAS G12D = KRAS G12D (Homo sapiens, UniProt P01116, G12D); assay: GDP-GTP exchange assay (bodipy-GDP/GppNHp, SOS1), KRAS G12D; assay type: biochemical
KRAS G12V = KRAS G12V (Homo sapiens, UniProt P01116, G12V); assay: GDP-GTP exchange assay (bodipy-GDP/GppNHp, SOS1), KRAS G12V; assay type: biochemical
[1] = Table H, column G12D, for compounds isolated as several atropisomers/diastereoisomers the value for the most potent isomer is quoted, read-out: KRAS G12D exchange assay IC50
[2] = Table H, column G12V, for compounds isolated as several atropisomers/diastereoisomers the value for the most potent isomer is quoted, read-out: KRAS G12V exchange assay IC50
[3] = bodipy-loaded KRAS G12D 2.5 nM, 4 h pre-incubation, value for the most potent isomer quoted for certain compounds, read-out: G12D (KRAS G12D exchange assay IC50)
[4] = KRAS G12V mutant, value for the most potent isomer quoted for certain compounds, read-out: G12V (KRAS G12V exchange assay IC50)

Sequence of KRAS G12V (P01116 1-188 isoform P01116-2 G12V): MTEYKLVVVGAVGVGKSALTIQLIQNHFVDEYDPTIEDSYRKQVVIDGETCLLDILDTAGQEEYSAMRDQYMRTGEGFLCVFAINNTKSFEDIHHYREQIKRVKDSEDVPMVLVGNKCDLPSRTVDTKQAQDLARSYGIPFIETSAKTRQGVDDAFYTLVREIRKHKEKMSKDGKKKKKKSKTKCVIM
Sequence of KRAS G12D (P01116 1-188 isoform P01116-2 G12D): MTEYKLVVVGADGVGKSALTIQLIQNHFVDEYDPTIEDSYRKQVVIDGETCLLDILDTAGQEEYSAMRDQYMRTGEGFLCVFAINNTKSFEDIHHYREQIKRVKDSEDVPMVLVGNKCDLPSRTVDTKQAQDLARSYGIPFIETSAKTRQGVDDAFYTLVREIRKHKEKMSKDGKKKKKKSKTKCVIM

| SMILES | Caco-2 (Caco-2 cells) | IC50 (KRAS G12D; [1]) | IC50 (KRAS G12V; [2]) | IC50 (KRAS G12D; [3]) | IC50 (KRAS G12V; [4]) |
| --- | --- | --- | --- | --- | --- |
| Cc1nc2c(F)c(-c3cccc(Cl)c3Cl)c(CCC#N)cc2c2c1cc([C@H]1C[C@H](Oc3cccnc3F)CN1C(=O)C1CC1)n2[C@H]1[C@H]2CN[C@@H]1C2 [Example 39, 3-(1-((1R,4R,5S)-2-Azabicyclo[2.1.1]hexan-5-yl)-2-((2R,4S)-1-(cyclopropanecarbonyl)-4-((2-fluoropyridin-3-yl)oxy)pyrrolidin-2-yl)-7-(2,3-dichlorophenyl)-6-fluoro-4-methyl-1H-pyrrolo[3,2-c]quinolin-8-yl)propanenitrile] | ++ (a Caco-2 value of >0.5 but ≤1) | ≤ 100 nM | ≤ 100 nM |  |  |
| Cc1cccc(F)c1CO[C@H]1C[C@H](c2cc3c(C)nc4c(F)c(-c5cccc(Cl)c5Cl)c(CCC#N)cc4c3n2[C@H]2[C@H]3CN[C@@H]2C3)N(C(=O)C2CC2)C1 [Example 19] | + (a Caco-2 value of ≤0.5) | ≤ 100 nM | ≤ 100 nM |  |  |
| Cc1nc2c(F)c(-c3cccc(Cl)c3Cl)c(CCC#N)cc2c2c1cc([C@H]1C[C@H](OCc3cccc(C(F)(F)F)n3)CN1C(=O)C1CC1)n2[C@H]1[C@H]2CN[C@@H]1C2 [Example 10] | ++ (a Caco-2 value of >0.5 but ≤1) | ≤ 100 nM | ≤ 100 nM |  |  |
| COc1cccc(O[C@H]2C[C@H](c3cc4c(C)nc5c(F)c(-c6cccc(Cl)c6Cl)c(CCC#N)cc5c4n3[C@H]3[C@H]4CN[C@@H]3C4)N(C(=O)C3CC3)C2)c1 [Example 44, 3-(1-((1R,4R,5S)-2-Azabicyclo[2.1.1]hexan-5-yl)-2-((2R,4S)-1-(cyclopropanecarbonyl)-4-(3-methoxyphenoxy)pyrrolidin-2-yl)-7-(2,3-dichlorophenyl)-6-fluoro-4-methyl-1H-pyrrolo[3,2-c]quinolin-8-yl)propanenitrile] | + (a Caco-2 value of ≤0.5) | ≤ 100 nM | ≤ 100 nM |  |  |
| Cc1nc2c(F)c(-c3cccc(Cl)c3Cl)c(CCC#N)cc2c2c1cc([C@H]1C[C@H](Oc3ccc(N(C)C)nc3)CN1C(=O)C1CC1)n2[C@H]1[C@H]2CN[C@@H]1C2 [Example 38, 3-(1-((1R,4R,5S)-2-Azabicyclo[2.1.1]hexan-5-yl)-2-((2R,4S)-1-(cyclopropanecarbonyl)-4-((6-(dimethylamino)pyridin-3-yl)oxy)pyrrolidin-2-yl)-7-(2,3-dichlorophenyl)-6-fluoro-4-methyl-1H-pyrrolo[3,2-c]quinolin-8-yl)propanenitrile] | ++ (a Caco-2 value of >0.5 but ≤1) | ≤ 100 nM | ≤ 100 nM |  |  |
| Cc1nc2c(F)c(-c3cccc(Cl)c3Cl)c(CCC#N)cc2c2c1cc([C@H]1C[C@H](Oc3cnn(C)c3)CN1C(=O)C1CC1)n2[C@H]1[C@H]2CN[C@@H]1C2 [Example 135] |  |  |  | ≤ 100 nM | ≤ 100 nM |
| Cc1nc2c(F)c(-c3cccc(Cl)c3Cl)c(CCC#N)cc2c2c1cc([C@H]1C[C@H](n3cc(C4CC4)nn3)CN1C(=O)C1CC1)n2[C@H]1[C@H]2CN[C@@H]1C2 [Example 179] |  |  |  | ≤ 100 nM | ≤ 100 nM |
| Cc1nc2c(F)c(-c3cccc(Cl)c3Cl)c(CCC#N)cc2c2c1cc([C@H]1C[C@H](OCc3ccc(Cl)cc3F)CN1C(=O)C1CC1)n2[C@H]1[C@H]2CN[C@@H]1C2 [Example 155] |  |  |  | ≤ 100 nM | ≤ 100 nM |
| CNC(=O)c1cccc(O[C@H]2C[C@H](c3cc4c(C)nc5c(F)c(-c6cccc(Cl)c6Cl)c(CCC#N)cc5c4n3[C@H]3[C@H]4CN[C@@H]3C4)N(C(=O)C3CC3)C2)c1 [Example 173] |  |  |  | ≤ 100 nM | ≤ 100 nM |
| Cc1cccnc1CO[C@H]1C[C@H](c2cc3c(C)nc4c(F)c(-c5cccc(Cl)c5Cl)c(CCC#N)cc4c3n2[C@H]2[C@H]3CN[C@@H]2C3)N(C(=O)C2CC2)C1 [Example 150] |  |  |  | ≤ 100 nM | ≤ 100 nM |
| COc1ncnc2c1ccn2[C@H]1C[C@H](c2cc3c(C)nc4c(F)c(-c5cccc(Cl)c5Cl)c(CCC#N)cc4c3n2[C@H]2[C@H]3CN[C@@H]2C3)N(C(=O)C2CC2)C1 [Example 73, 3-(1-((1R,4R,5S)-2-Azabicyclo[2.1.1]hexan-5-yl)-2-((2R,4S)-1-(cyclopropanecarbonyl)-4-(4-methoxy-7H-pyrrolo[2,3-d]pyrimidin-7-yl)pyrrolidin-2-yl)-7-(2,3-dichlorophenyl)-6-fluoro-4-methyl-1H-pyrrolo[3,2-c]quinolin-8-yl)propanenitrile] |  | ≤ 100 nM | ≤ 100 nM |  |  |
| Cc1nc2c(F)c(-c3cccc(Cl)c3Cl)c(CCC#N)cc2c2c1cc([C@H]1C[C@H](Oc3cccc(C(C)C)c3)CN1C(=O)C1CC1)n2[C@H]1[C@H]2CN[C@@H]1C2 [Example 168] |  |  |  | 100 to 1000 nM | ≤ 100 nM |
| Cc1nc2c(F)c(-c3cccc(Cl)c3Cl)c(CCC#N)cc2c2c1cc([C@H]1C[C@H](OCc3ccc(Cl)cc3C#N)CN1C(=O)C1CC1)n2[C@H]1[C@H]2CN[C@@H]1C2 [Example 159] |  |  |  | ≤ 100 nM | ≤ 100 nM |

More lines, now with the values ahead:

| Caco-2 (Caco-2 cells) | IC50 (KRAS G12D; [1]) | IC50 (KRAS G12V; [2]) | IC50 (KRAS G12D; [3]) | IC50 (KRAS G12V; [4]) | SMILES |
| --- | --- | --- | --- | --- | --- |
|  |  |  | ≤ 100 nM | ≤ 100 nM | COC(=O)C1CCC(c2cn([C@H]3C[C@H](c4cc5c(C)nc6c(F)c(-c7cccc(Cl)c7Cl)c(CCC#N)cc6c5n4[C@H]4[C@H]5CN[C@@H]4C5)N(C(=O)C4CC4)C3)nn2)C1 (stereo partly shown) [Example 391] |
|  |  |  | ≤ 100 nM | 100 to 1000 nM | Cc1nc2c(F)c(-c3cccc(Cl)c3Cl)c(CCC#N)cc2c2c1cc([C@H]1C[C@H](n3cc(-c4ccccc4)cn3)CN1C(=O)C1CC1)n2[C@H]1[C@H]2CN[C@@H]1C2 [Example 354] |
|  |  |  | ≤ 100 nM | ≤ 100 nM | Cc1cn([C@H]2C[C@H](c3cc4c(C)nc5c(F)c(-c6cccc(Cl)c6Cl)c(CCC#N)cc5c4n3[C@H]3[C@H]4CN[C@@H]3C4)N(C(=O)C3CC3)C2)nn1 [Example 343] |
|  |  |  | ≤ 100 nM | ≤ 100 nM | CN1CCC(c2nc3c(F)c(-c4cccc(Cl)c4Cl)c(CCC#N)cc3c3c2cc([C@H]2C[C@H](OCc4c(F)cccc4F)CN2C(=O)C2CC2)n3[C@H]2[C@H]3CN[C@@H]2C3)CC1 [Example 236] |
|  |  |  | ≤ 100 nM | ≤ 100 nM | Cc1nc2c(F)c(-c3cccc(Cl)c3Cl)c(CCC#N)cc2c2c1cc([C@H]1C[C@H](n3cc(CN4CCOCC4=O)nn3)CN1C(=O)C1CC1)n2[C@H]1[C@H]2CN[C@@H]1C2 [Example 323] |
|  |  |  | ≤ 100 nM | ≤ 100 nM | Cc1nc2c(F)c(-c3cccc(Cl)c3Cl)c(CCC#N)cc2c2c1cc([C@H]1C[C@H](Oc3ccn(C(F)(F)F)n3)CN1C(=O)C1CC1)n2[C@H]1[C@H]2CN[C@@H]1C2 [Example 357] |
|  |  |  | ≤ 100 nM | ≤ 100 nM | Cc1ncn([C@H]2C[C@H](c3cc4c(C)nc5c(F)c(-c6cccc(Cl)c6Cl)c(CCC#N)cc5c4n3[C@H]3[C@H]4CN[C@@H]3C4)N(C(=O)C3CC3)C2)n1 [Example 277] |
|  |  |  | 100 to 1000 nM | ≤ 100 nM | N#CCCc1cc2c(nc(-c3ccc(N4CCOCC4)nc3)c3cc([C@H]4C[C@H](OCc5c(F)cccc5F)CN4C(=O)C4CC4)n([C@H]4[C@H]5CN[C@@H]4C5)c32)c(F)c1-c1cccc(Cl)c1Cl [Example 206] |
|  |  |  | ≤ 100 nM | ≤ 100 nM | [2H]C([2H])(O[C@H]1C[C@H](c2cc3c(C)nc4c(F)c(-c5cccc(Cl)c5Cl)c(CCC#N)cc4c3n2[C@H]2[C@H]3CN[C@@H]2C3)N(C(=O)C2CC2)[C@@H]1C)c1nscc1C [Example 242] |
|  |  |  | ≤ 100 nM | ≤ 100 nM | Cc1nc2c(F)c(-c3cccc(Cl)c3Cl)c(CCC#N)cc2c2c1cc([C@H]1C[C@H](Oc3cccc(C(=O)N4CCCC4)c3)CN1C(=O)C1CC1)n2[C@H]1[C@H]2CN[C@@H]1C2 [Example 223] |
|  |  |  | ≤ 100 nM | ≤ 100 nM | Cc1nc2c(F)c(-c3cccc(Cl)c3Cl)c(CCC#N)cc2c2c1cc([C@H]1C[C@H](OCc3cccc(C(=O)N(C)C)c3)CN1C(=O)C1CC1)n2[C@H]1[C@H]2CN[C@@H]1C2 [Example 187] |
|  |  |  | ≤ 100 nM | ≤ 100 nM | Cc1nc2c(F)c(-c3cccc(Cl)c3Cl)c(CCC#N)cc2c2c1cc([C@H]1C[C@H](OCc3cc(C(F)(F)F)on3)CN1C(=O)C1CC1)n2[C@H]1[C@H]2CN[C@@H]1C2 [Example 361] |
